Our source for the IC50 and melting point values is patent publication US7094801B2, “Chalcone derivatives and their use to treat diseases” (Atherogenics, Inc., priority 2001, dated 2006).

The test system of one series is VCAM-1. Briefly: In Vitro VCAM-1 Assay (TNF-α stimulated HAEC or HPAEC, cell ELISA). In kind it is cell-based, human. The settings on record: TNF-α (1 ng/ml) stimulated HAEC or HPAEC, approximately 16 hours. Here is the method: Cell Culture and compound dosing: Cultured primary human aortic (HAEC) or pulmonary (HPAEC) endothelial cells were obtained from Clonetics, Inc., and were used below passage 9. Cells were seeded in 96 well plates such that they would reach 90–95% confluency by the following day. On the following day the cells were stimulated with TNF-α (1 ng/ml) in the presence or absence of compounds dissolved in DMSO such that the final concentration of DMSO is 0.25% or less. To establish a dose curve for each compound, four concentrations in 2- to 5-fold increments were used. Cells were exposed to TNF-α and compounds for approximately 16 hours. The next day the cells were examined under microscope to score for visual signs of toxicity or cell stress.
Following 16 hr exposure to TNF-α and compound the media was discarded and the cells were washed once with Hanks Balanced Salt Solution (HBSS)/Phosphate buffered saline (PBS) (1:1). Primary antibodies against VCAM-1 (0.25 μg/ml in HBSS/PBS+5% FBS) were added and incubated for 30–60 minutes at 37° C. Cells were washed with HBSS/PBS three times, and secondary antibody Horse Radish Peroxidase (HRP)-conjugated goat anti-mouse IgG (1:500 in HBSS/PBS+5% FBS) were added and incubated for 30 minutes at 37° C. Cells were washed with HBSS/PBS four time and TMB substrate were added and incubated at room temperature in the dark until there was adequate development of blue color. The length of time of incubation was typically 5–15 minutes. 2N sulfuric acid was added to stop the color development and the data was collected by reading the absorbance on a BioRad ELISA plate reader at OD 450 nm. The results are expressed as IC50 values (the concentration (micromolar) of compound required to inhibit 50% of the maximal response of the control sample stimulated by TNF-α only).
(ELISA stands for enzyme-linked immunosorbent assay.)

Structures can show the parent of a compound that is named as a salt.

Usually IC50 stands for the concentration needed to halve the response being measured. The melting point is the temperature, or range, at which the solid turns liquid.

`COc1cc(OC)c(-c2cccs2)cc1/C=C/C(=O)c1ccccc1C(=O)O` [Example 35, 2-[3E-(2,4-Dimethoxy-5-thiophen-2-yl-phenyl)-acryloyl]-benzoic acid] returned a melting point of 196 to 198 °C. Further, in the series on VCAM-1 (Homo sapiens, 16 h), the IC50 is more than 10 µM.
Compound `COc1cc(OC)c(-c2cc3ccccc3s2)cc1/C=C/C(=O)c1ccc(C(N)=O)cc1` [Example 93, 4-[3E-(5-Benzo[b]thiophen-2-yl-2,4-dimethoxy-phenyl)-acryloyl]-benzamide] returned a melting point of 240 to 241 °C. For the same compound, the IC50 with VCAM-1 (Homo sapiens, 16 h) is less than 1 µM.
For `O=C(/C=C/c1ccc(-c2cccs2)cc1)c1ccc(S)cc1` [Example 22, 1-(4-Mercapto-phenyl)-3E-(4-thiophen-2-yl-phenyl)-propenone], in that order: > 110 °C (dec.) and more than 10 µM.
For `COc1cc(OCCCN2CCOCC2)c(/C=C/C(=O)c2ccc(C(N)=O)cc2)cc1-c1cccs1` [Example 94, 4-{3E-[4-Methoxy-2-(3-morpholin4-yl-propoxy)-5-thiophen-2-yl-phenyl]-acryloyl}-benzamide], in that order: 81 to 83 °C and less than 1 µM.
For `COc1cc(OC)c(-c2cc3ccccc3s2)cc1/C=C/C(=O)c1ccc(C(=O)NC(=O)C(C)C)cc1` [Example 96, 4-[3E-(5-Benzo[b]thiophen-2-yl-2,4-dimethoxy-phenyl)-acryloyl]-N-isobutyryl-benzamide], in that order: 208 to 209 °C and less than 5 µM.
For the compound `COc1cc(OC)c(-c2cc3ccccc3[nH]2)cc1/C=C/C(=O)c1ccc(C(=O)O)cc1` [Example 61, 4-{3E-[5-(1H-Indol-2-yl)-2,4-dimethoxy-phenyl]-acryloyl}-benzoic acid], the melting point fell in the range of 210 to 212 °C. This compound registered an IC50 in the series on VCAM-1 (Homo sapiens, 16 h) of less than 1 µM.
Compound `COc1cc(OCc2c(C)noc2C)c(/C=C/C(=O)c2ccc(C(=O)O)cc2)cc1-c1cccs1` [Example 62, 4-{3E-[2-(3,5-Dimethyl-isoxazol-4-ylmethoxy)-4-methoxy-5-thiolphen-2-yl-phenyl]-acryloyl}-benzoic acid] registered a melting point of 213 to 215 °C. The compound further returned an IC50 in the series with VCAM-1 (Homo sapiens, 16 h) of less than 5 µM.
As to `COc1cc(OC)c(-c2cc3ccccc3s2)cc1/C=C/C(=O)c1ccccc1C(=O)O` [Example 7, 2-[3E-(5-Benzo[b]thiophen-2-yl-2,4-dimethoxy-phenyl)-acryloyl]-benzoic acid], the melting point is 220 to 223 °C (dec.). The same compound showed an IC50 in the series with VCAM-1 of less than 1 µM.
Consider `COc1cc(OCCCN2CCOCC2)c(/C=C/C(=O)c2ccc(S(N)(=O)=O)cc2)cc1-c1cccs1` [Example 85, 4-{3E-[4-Methoxy-2-(3-morpholin-4-yl-propoxy)-5-thiophen-2-yl-phenyl]-acryloyl}-benzenesulfonamide], for which the melting point is 193 to 196 °C. Moreover, the IC50 in the series on VCAM-1 (Homo sapiens, 16 h) was less than 1 µM.
For `COc1cc(OCn2nnc3ccccc32)c(/C=C/C(=O)c2ccc(S(N)(=O)=O)cc2)cc1-c1cccs1` [Example 115, 4-{3E-[2-(Benzotriazol-1-ylmethoxy)-4-methoxy-5-thiophen-2-yl-phenyl]-acryloyl}-benzenesulfonamide], in that order: 255 °C (dec.) and less than 5 µM.
For `COc1cc(OC)c(-c2cccs2)cc1/C=C/C(=O)c1cccc(C(=O)O)c1` [Example 43, 3-[3E-(2,4-Dimethoxy-5-thiophen-2-yl-phenyl)-acryloyl]-benzoic acid], the melting point lay within 179 to 182 °C. In the series with VCAM-1 (Homo sapiens, 16 h), this compound showed an IC50 of less than 5 µM.
For the compound `COc1cc(OC)c(-c2cc3ccccc3s2)cc1/C=C/C(=O)c1ccc(Nc2c(N)c(=O)c2=O)cc1` [Example 102, 3-Amino-4-{4-[3E-(5-benzo[b]thiophen-2-yl-2,4-dimethoxy-phenyl)-acryloyl]-phenylamino}-cyclobut-3-ene-1,2-dione], the melting point is more than 260 °C. The same compound came in with an IC50 in the series on VCAM-1 (Homo sapiens, 16 h) of more than 10 µM.
For `O=C(O)c1ccc(C(=O)/C=C/c2ccc(N3CCCC3)c(-c3cccs3)c2)cc1` [Example 20, 4-[3E-(4-Pyrrolidin-1-yl-3-thiophen-2-yl-phenyl)-acryloyl]-benzoic acid], in that order: 212 to 214 °C (dec.) and more than 10 µM.
The compound `COc1cc(OC)c(-c2c[nH]c(C3CC3)n2)cc1/C=C/C(=O)c1ccc(S(N)(=O)=O)cc1` [Example 111, 4-{3E-[5-(2-Cyclopropyl-1H-imidazol-4-yl)-2,4-dimethoxy-phenyl]-acryloyl}-benzenesulfonamide] returned a melting point of 156 to 160 °C. Besides, the IC50 with VCAM-1 (Homo sapiens, 16 h) was more than 10 µM.
Compound `COc1cc(OC(C)(C)C(=O)O)c(-c2cccs2)cc1/C=C/C(=O)c1ccc(N(C)S(C)(=O)=O)cc1` [Example 101, 2-(4-{3-[4-(Methanesulfonyl-methyl-amino)-phenyl]-3-oxo-E-propenyl}-5-methoxy-2-thiophen-2-yl-phenoxy)-2-methyl-propionic acid] yielded a melting point of 197 to 200 °C. This compound had an IC50 in the series on VCAM-1 (Homo sapiens, 16 h) of more than 10 µM.
The matching figures for `O=C(/C=C/c1ccc(-c2cccs2)cc1)c1ccc2c(c1)OC(CO)(CO)O2` [Example 2, 1-(2,2-Bis-hydroxymethyl-benzo[1,3]dioxol-5-yl)-3E-(4-thiophen-2-yl-phenyl)-propenone]: 166 to 168 °C and less than 5 µM.
`O=C(O)c1ccc(C(=O)/C=C/c2ccc(F)c(-c3cccs3)c2)cc1` [Example 21, 4-[3E-{4-Fluoro-3-(thiophen-2-yl)-phenyl}-acryloyl]-benzoic acid] came in with a melting point of 242 to 244 °C. Moreover, the IC50 with VCAM-1 (Homo sapiens, 16 h) is less than 5 µM.
For `COc1cc(OC)c(-c2cc3ccccc3s2)cc1/C=C/C(=O)c1ccc(S(=O)(=O)NC(=O)C(C)C)cc1` [Example 87, 4-[3E-(5-Benzo[b]thiophen-2-yl-2,4-dimethoxy-phenyl)-acryloyl]-N-isobutyryl-benzenesulfonamide], in that order: > 240 °C (dec.) and less than 1 µM.
For `COc1cc(OCc2nc3ccccc3[nH]2)c(/C=C/C(=O)c2ccc(S(N)(=O)=O)cc2)cc1-c1cccs1` [Example 113, 4-{3E-[2-(1H-Benzoimidazol-2-ylmethoxy)-4-methoxy-5-thiophen-2-yl-phenyl]-acryloyl}-benzenesulfonamide], in that order: 235 to 237 °C (dec.) and less than 5 µM.
Regarding `O=C(/C=C/c1ccc(-c2cccs2)cc1)c1ccc(SC(F)(F)C(=O)O)cc1` [Example 25, Difluoro-{4-[3E-(4-thiophen-2-yl-phenyl)-acryloyl]-phenylthio}-acetic acid, sodium salt], the IC50 with VCAM-1 (Homo sapiens, 16 h) is more than 10 µM.
Same read-out and setting: the same measure for `COc1cc(OC)c(-c2cc3ccccc3s2)cc1/C=C/C(=O)c1ccc(S(N)(=O)=O)cc1` [Example 80, 4-[3E-(5-Benzo[b]thiophen-2-yl-2,4-dimethoxy-phenyl)-acryloyl]-benzenesulfonamide]: less than 5 µM.
In the series with VCAM-1 (Homo sapiens, 16 h), `COc1cc(OC)c(-c2cc3ccccc3s2)cc1/C=C/C(=O)c1ccc(NC2OC(CO)C(O)C(O)C2O)cc1` [Example 99, 3E-(5-Benzo[b]thiophen-2-yl-2,4-dimethoxy-phenyl)-1-[4-(D-glucopyranosylamino)-phenyl]-propenone] came in with an IC50 of more than 10 µM.
